“And” between values parts separate entries of the source, which are not always exact repeats. Equal values may be shown once.

Data set [1] deals with tumors. Briefly: In vivo tumor model, SIRPα-Fc-LIGHT with anti-PD-1 (Example 15). The arrangement: species or system mice. As to conditions: combination with anti-PD-1 antibody. Here is the method:
The in vivo ability of combinations of the SIRPα-Fc-LIGHT chimeric protein with anti-PD-1 antibodies to target and treat tumors was determined. (FIG. 26A and FIG. 26B) FIG. 26C and FIG. 26D include data relevant to the graphs of FIG. 26A and FIG. 26B.

In data set [2] the test system is tumors. Briefly: In vivo tumor model, SIRPα-Fc-OX40L with checkpoint antibodies (Example 14). Also noted: species or system mice. As to conditions: chimeric protein alone. Here is the method:
The in vivo ability of combinations of the SIRPα-Fc-OX40L chimeric protein with anti-CTLA-4 antibodies or the SIRPα-Fc-OX40L chimeric protein with anti-PD-1 antibodies to target and treat tumors was determined.

Data set [3] deals with IRF-inducible ISG reporter in RAW264.7 cells. Briefly: RAW264.7-ISG interferon reporter cells co-cultured with A20 lymphoma cells. The format is cell-based, mouse. As to conditions: monotherapy; 50 mg/mL proteins, 1 mg/mL anti-mCD20; 24 hours. The procedure:
FIG. 8D: Macrophage:Toledo lymphoma co-cultures were harvested 2 hours into phagocytosis assays in the presence of rituximab ([…]), SIRPα-Fc-CD40L ([…]), or the combination of both agents. Macrophages were isolated by CD11b+ FACS, RNA was prepared, cDNA synthesized, and gene expression (IFNa1, IFNb1, CD80, and CD86) assessed by qRT-PCR. Fold change was calculated using DDCT and values obtained from the housekeeping gene ACTB, and the corresponding values from untreated samples. […] After 2 hours, co-cultures were isolated from tissue culture vessels and were stained with a fluorescently conjugated CD11b antibody to discriminate macrophages. Cells were then assessed by flow cytometry for the co-localization of fluorescent signal from both cells types. […] After 24-hours type I interferon induced luminescence was assessed using a luminometer. The maximum luminescence (RLU) from each experiment was set to 1, and all other samples were normalized accordingly. […]
Additionally, a macrophage reporter system was used to detect activation. […] After 24 hours, culture supernatant was collected and assessed for luciferase activity, which would indicate activation of a type I interferon response in the RAW-ISG reporter cells. […]

The subject of data set [4] is CD8+ T cell-depleted PBMC. Kind of data set: Proliferation of CD8+ T cell-depleted PBMC ([3H]-thymidine). In kind it is cell-based, human. To be noted: 0.3, 3, 30, or 300 nM; 7-day culture; 33-50 donors. The procedure:
(§1) Here, proliferation was assessed via [^3H]-Thymidine incorporation on days 5, 6, and 7. The order of samples (in triplicate) along the X-axis is media only, KLH, Exenatide, 0.3 nm SIRPα-Fc-CD40L, 3 nm SIRPα-Fc-CD40L, 30 nm SIRPα-Fc-CD40L and 300 nm SIRPα-Fc-CD40L. […] Here, proliferation was assessed by ELISpot. The order of samples (in triplicate) along the X-axis is media only, KLH, Exenatide, 0.3 nm SIRPα-Fc-CD40L, 3 nm SIRPα-Fc-CD40L, 30 nm SIRPα-Fc-CD40L and 300 nm SIRPα-Fc-CD40L.
(§2) The observation that SIRPα-Fc-CD40L stimulated CD40 signaling prompted investigation of other cellular functions that depend upon CD40 signaling. CD8+ T cell-depleted PBMC were isolated from a total of 33-50 different human donors and cultured in the presence of a dose-titration of hSIRPα-Fc-CD40L (FIG. 6A and FIG. 6B).

Data set [5] deals with CD8+ T cell-depleted PBMC. Kind of data set: IL-2 ELISpot of CD8+ T cell-depleted PBMC. To be noted: day 8 of the culture. The format is cell-based, human. The procedure:
as §1, §2

The nature of data set [6]: Repeat-dose safety and activity study in cynomolgus macaques. As to conditions: IV infusion weekly for five weeks; 0.1, 1, 10 and 40 mg/kg. The format is in vivo. The procedure:
FIG. 21 is a graph showing cynomolgus macaques that were treated with vehicle, or 0.1, 1, 10, and 40 mg/kg of SIRPα-Fc-CD40L. Blood chemistry analysis assessed peripheral erythrocyte counts, hemoglobin levels, and hematocrit. In addition, the fold-change in lymphocyte count from pre-dose to 24 hours post-dose is shown.
The experiments of this example tested the safety and activity of the human SIRPα-Fc-CD40L chimeric protein following repeat doses in cynomolgus macaques. Briefly, naïve cynomolgus macaques were administered the human SIRPα-Fc-CD40L chimeric protein by intravenous infusion every week, for five consecutive weeks, at doses of 0.1, 1, 10 and 40 mg/kg. Standard hematology and clinical chemistry parameters were collected before and after each dose.
Receptor occupancy was evaluated on circulating CD40+ lymphocytes.

In the next data set the target is FcγR-IIIb (Homo sapiens, UniProt O75015). Kind of data set: SPR binding to Fc receptor FcγR-IIIb. The text has this: (§3) The extracellular domain (ECD) of SIRPα and the ECD of CD40L were fused via an antibody Fc domain to generate SIRPαECD-Fc-CD40LECD chimeric proteins. When human proteins were used, the chimeric protein is referred to as hSIRPα-Fc-CD40L; when murine proteins were used, the chimeric protein is referred to as and mSIRPα-Fc-CD40L. Generically, the chimeric protein is referred to as SIRPα-Fc-CD40L. […] Mammalian cells were then transfected with the hSIRPα-Fc-CD40L expressing construct, and the secreted protein was purified from conditioned media by affinity chromatography. The purified protein was then analyzed for the presence of each individual domain by Western blotting using anti-SIRPα, anti-Fc, and anti-CD40L antibodies (FIG. 3A, bottom). […] The reduced and deglycosylated form of the protein migrated at the predicted monomeric molecular weight of 90.1 kDa. […] Next, binding affinities for SIRPα-Fc-CD40L to recombinant CD47, CD40, or Fc receptors were evaluated by surface plasmon resonance (SPR). […] Finally, to confirm that SIRPα-Fc-CD40L interacted with native CD47 and CD40 in a similar manner to recombinant CD47 and CD40, CHOK1-hCD47 and CHOK1-hCD40 reporter cell lines were developed (FIG. 3F). […] A functional ELISA evaluated whether SIRPα-Fc-CD40L could outcompete a commercially available single-sided SIRPα-Fc control for binding to recombinant CD47 (FIG. 3H).
Chain of FcγR-IIIb (O75015 17-200): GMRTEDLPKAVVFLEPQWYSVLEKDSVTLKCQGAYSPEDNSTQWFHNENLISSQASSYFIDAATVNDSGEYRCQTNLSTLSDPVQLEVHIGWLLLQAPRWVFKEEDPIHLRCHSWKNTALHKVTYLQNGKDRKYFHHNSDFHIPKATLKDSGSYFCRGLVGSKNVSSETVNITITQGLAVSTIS

A further data set deals with T1, FcγR-IIb (Homo sapiens, UniProt P31994).
T1 sequence (P31994 43-310): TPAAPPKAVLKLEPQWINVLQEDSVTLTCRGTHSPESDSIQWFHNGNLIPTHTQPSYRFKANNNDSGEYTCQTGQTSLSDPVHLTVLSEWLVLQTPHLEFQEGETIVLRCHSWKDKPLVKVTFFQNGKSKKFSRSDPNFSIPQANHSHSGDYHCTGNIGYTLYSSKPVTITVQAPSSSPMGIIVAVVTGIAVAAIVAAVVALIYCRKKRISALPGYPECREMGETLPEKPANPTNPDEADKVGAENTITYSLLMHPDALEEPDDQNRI
Kind of data set: SPR binding to Fc receptor FcγR-IIb.
Text: as §3

Another data set addresses FcγR-Ia (Homo sapiens, UniProt P12314). Kind of data set: SPR binding to Fc receptor FcγR-Ia. The text has this:
Scale is shown and yellow arrows correspond with each identified monomer. A schematic of the hexamer species is shown to the right, depicting dimerization of the Fc domain and trimerization of the CD40L domain. […] Recombinant hSIRPα-Fc, hCD40L-Fc, and hIgG1 were used as positive controls. […] In both panels, the CHOK1 Parental is on the left and the CHOK1/hCD47 is on the right. […] For both graphs, the CHOK1 Parental is on the bottom. […] In this figure, the control is the top curve, the SIRPα-Fc-CD40L is the middle curve, and the anti-CD47 is the bottom curve.
The extracellular domain (ECD) of SIRPα and the ECD of CD40L were fused via an antibody Fc domain to generate SIRPαECD-Fc-CD40LECD chimeric proteins. When human proteins were used, the chimeric protein is referred to as hSIRPα-Fc-CD40L; when murine proteins were used, the chimeric protein is referred to as and mSIRPα-Fc-CD40L. […] The purified protein was then analyzed for the presence of each individual domain by Western blotting using anti-SIRPα, anti-Fc, and anti-CD40L antibodies (FIG. 3A, bottom). […] Next, binding affinities for SIRPα-Fc-CD40L to recombinant CD47, CD40, or Fc receptors were evaluated by surface plasmon resonance (SPR). […] A functional ELISA evaluated whether SIRPα-Fc-CD40L could outcompete a commercially available single-sided SIRPα-Fc control for binding to recombinant CD47 (FIG. 3H).
Background: SPR reads the build-up and loss of mass on a sensor chip optically.

In data set [7] the target is T2, recombinant mouse CD47 (mouse) (UniProt Q61735).
T2 sequence (looked up): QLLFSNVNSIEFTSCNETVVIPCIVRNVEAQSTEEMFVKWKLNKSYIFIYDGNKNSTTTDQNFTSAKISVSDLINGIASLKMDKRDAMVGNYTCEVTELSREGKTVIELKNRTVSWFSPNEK
Briefly: dual ELISA: coat mCD47-Fc, detect mCD40-His, tertiary anti-his-HRP, OD450. In general terms: ELISA stands for enzyme-linked immunosorbent assay.

Data set [8] concerns IFNα1, IFNβ1, CD80 and CD86 expression in macrophages. Kind of data set: qRT-PCR of macrophages sorted from macrophage:Toledo lymphoma co-cultures. The format is cell-based, human. Also noted: macrophage activation and type I interferon gene expression: dose or concentration left out as unconfirmed. To be noted: monotherapy; 2 hours. The procedure: FIG. 8D: Macrophage:Toledo lymphoma co-cultures were harvested 2 hours into phagocytosis assays in the presence of rituximab ([…]), SIRPα-Fc-CD40L ([…]), or the combination of both agents. Macrophages were isolated by CD11b+ FACS, RNA was prepared, cDNA synthesized, and gene expression (IFNa1, IFNb1, CD80, and CD86) assessed by qRT-PCR. Fold change was calculated using DDCT and values obtained from the housekeeping gene ACTB, and the corresponding values from untreated samples. […] After 2 hours, co-cultures were isolated from tissue culture vessels and were stained with a fluorescently conjugated CD11b antibody to discriminate macrophages. Cells were then assessed by flow cytometry for the co-localization of fluorescent signal from both cells types. Identical assays were set up where macrophages were pre-incubated for 1 hour with 20 μg/mL of a commercially available Fc block cocktail or with 20 μg/mL of a CD40 blocking antibody or with 5 μg/mL of a calreticulin blocking peptide. FIG. 8G: RAW 264.7-Lucia ISG cells were cultured with A20 lymphoma cells in the presence of […] of mSIRPα-Fc-CD40L, recombinant Fc-mCD40L, mSIRPα-Fc, or their combination, 1 mg/mL anti-mCD20, or the combination of mSIRPα-Fc-CD40L and anti-mCD20. After 24-hours type I interferon induced luminescence was assessed using a luminometer. The maximum luminescence (RLU) from each experiment was set to 1, and all other samples were normalized accordingly. Values from repeat experiments are shown.
RNA was prepared from macrophages isolated using fluorescent activated cell sorting (FACS) from SIRPα-Fc-CD40L/Rituximab treated co-cultures macrophages and Toledo lymphoma cells. The RNA was assessed by qRT-PCR for expression of IFNα1 and IFNβ1, and the macrophage activation markers CD80 and CD86.
Background: In qPCR the cycle at which signal appears reflects the starting amount.

Chain of FcγR-Ia (P12314 16-374): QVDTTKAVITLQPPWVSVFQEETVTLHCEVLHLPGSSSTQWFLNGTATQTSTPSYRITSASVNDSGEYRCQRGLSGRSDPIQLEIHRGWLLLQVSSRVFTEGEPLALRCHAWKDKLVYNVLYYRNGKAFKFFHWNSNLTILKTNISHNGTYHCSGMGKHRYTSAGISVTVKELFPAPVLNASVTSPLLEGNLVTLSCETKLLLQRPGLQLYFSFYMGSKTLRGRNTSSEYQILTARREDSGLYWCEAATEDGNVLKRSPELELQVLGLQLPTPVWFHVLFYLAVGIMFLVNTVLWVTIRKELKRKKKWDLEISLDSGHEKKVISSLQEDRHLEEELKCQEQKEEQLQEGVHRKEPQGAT

As for “SIRPα(CD172a)-Fc-LIGHT: ECD of SIRPα, hinge-CH2-CH3 Fc linker and ECD of LIGHT (SEQ ID NO: 63)”, in the data set with tumors [1], the survival result is “any survivors by the twenty-fifth day” and the tumor size entry is recorded as “most effective in reducing tumor size”. In addition, the “rejection of secondary tumor challenge” value with tumors [1] (no additional treatment) stood at 66.6%.

For the substance “SIRPα(CD172a)-Fc-OX40L: ECD of SIRPα and ECD of OX40L fused via an antibody Fc domain (SEQ ID NO: 61)”, in the data set on tumors [2], the survival result is “any survivors by the sixteenth day” and the tumor size entry was “effective in reducing tumor size”.

Take “SIRPα-Fc: recombinant single-sided SIRPα-Fc protein [reference compound]”: the “interferon gene-driven luciferase activity (type I IFN response)” value in data set [3] is on record as “no significant signal”.

Take “hSIRPα-Fc-CD40L: chimeric protein: ECD of human SIRPα fused via an antibody Fc domain to ECD of human CD40L (SEQ ID NO: 60)”: in [4], the “proliferation of human PBMC” value was “dose-dependent proliferation”. The “number of IL-2-secreting PBMC” value in data set [5] is recorded as “dose-dependent increase”. Besides, the hemolysis result in data set [6] is “no evidence”. For the same substance, in data set [6], the thrombocytopenia entry was “no evidence”. For the same substance, the binding entry with FcγR-IIIb, with FcγR-IIb and in the data set with FcγR-Ia was “undetectable binding” in each case.

As a reminder, the EC50 is the concentration giving half of the maximal effect. “mSIRPα-Fc-CD40L chimeric protein (murine SIRPα ECD - Fc - murine CD40L ECD) (from UniProt P97797 32-373; P27548 47-260) (Fc fusion)”: the EC50 in data set [7] is 7.37 nM and 8.73 nM.

As for “rituximab: anti-CD20 antibody [reference compound]”, the “macrophage activation and type I interferon gene expression” value in data set [8] was “induced macrophage activation and the expression of type I interferon genes”.
